For data set [1], the system named is human promyelocytic leukemia HL-60 cells. In words: Cytotoxicity, MTT method, HL-60 cells. It counts as cell-based. As to conditions: for CC50: Homo sapiens, HL-60, 48 h, MTT, mean ± SD, read-out: CC50 HL-60; for SI (selectivity index) HL-60: average CC50 non-malignant cells / CC50 HL-60. On the procedure: (§1) Human promyelocytic leukemia [HL-60 (RCB3683)] (purchased from Riken Cell Bank, Tsukuba, Japan) was cultured at 37 °C in RPMI1640 medium (Fujifilm Wako Pure Chemical Co., Osaka, Japan) supplemented with 10% heat (56 °C, 30 min) inactivated FBS (Sigma-Aldrich Inc. St. Louis, MO, USA), 100 U/mL penicillin G, and 100 µg/mL streptomycin sulfate in a humidified 5% CO2 incubator (MCO-170 AICUVD-P, Panasonic Healthcare Co., Ltd., Gunma, Japan). Human oral squamous cell carcinoma (OSCC) cell lines derived from tongue [HSC-2 (RCB1945), HSC-3 (RCB1975), HSC-4 (RCB1902)] (Riken Cell Bank), and human normal oral cells (gingival fibroblasts, HGF; pulp cell, HPC; periodontal ligament fibroblast, HPLF), established from the first premolar extracted tooth in the lower jaw and periodontal tissues of a child, according to the guidelines of Meikai University Ethic Committee (No. A0808), were cultured in DMEM medium (Fujifilm Wako Pure Chemical Co.) supplemented with 10% FBS and antibiotics. The compounds in Series 2–4 were evaluated against HL-60, HSC-2, HSC-3, HSC-4, HGF, HPC, and HPLF cells based on a literature procedure, as described previously. In brief, near confluent cells were incubated in triplicate for 48 h at 37 °C with different concentrations ([…], 6.3, 12.5, 25, 50, 100 µM) of the compounds; then, viable cell numbers were measured using the MTT method. From the dose–response curve, a 50% cytotoxic concentration (CC50) was determined. All samples were dissolved in dimethylsulfoxide (DMSO). The toxicity of DMSO alone was calculated and subtracted. The CC50 values were determined from dose–response curves.
On the technique in general: Tetrazolium dyes change colour on reduction, which living cells bring about.

Data set [2] deals with human oral squamous cell carcinoma HSC-2 cells. Put plainly: Cytotoxicity, MTT method, HSC-2 cells. It counts as cell-based. As to conditions: for CC50: Homo sapiens, HSC-2, 48 h, MTT, mean ± SD, read-out: CC50 HSC-2; for SI (selectivity index) HSC-2: average CC50 non-malignant cells / CC50 HSC-2. On the procedure: as §1
In data set [3] the test system is human oral squamous cell carcinoma HSC-3 cells. In words: Cytotoxicity, MTT method, HSC-3 cells. In kind it is cell-based. As to conditions: for CC50: Homo sapiens, HSC-3, 48 h, MTT, mean ± SD, read-out: CC50 HSC-3; for SI (selectivity index) HSC-3: average CC50 non-malignant cells / CC50 HSC-3. On the procedure:
as §1

Data set [4] concerns human oral squamous cell carcinoma HSC-4 cells. Put plainly: Cytotoxicity, MTT method, HSC-4 cells. In kind it is cell-based. As to conditions: for CC50: Homo sapiens, HSC-4, 48 h, MTT, mean ± SD, read-out: CC50 HSC-4; for SI (selectivity index) HSC-4: average CC50 non-malignant cells / CC50 HSC-4. On the procedure: as §1
Data set [5] is described as follows: Cytotoxicity, MTT method, HGF non-malignant cells. In kind it is cell-based, human. As to conditions: human, gingival fibroblasts (HGF), non-malignant, mean ± SD. The method, then: as §1
Data set [6] can be described thus: Cytotoxicity, MTT method, HPC non-malignant cells. It counts as cell-based, human. As to conditions: human, pulp cells (HPC), non-malignant, mean ± SD. The method, then: as §1
Data set [7] can be described thus: Cytotoxicity, MTT method, HPLF non-malignant cells. In kind it is cell-based, human. Conditions: human, periodontal ligament fibroblasts (HPLF), non-malignant, mean ± SD. On the procedure: as §1
Data set [8] deals with human tumour cell lines HL-60, HSC-2, HSC-3, HSC-4. Put plainly: Cytotoxicity, average over the four human tumour cell lines. It counts as cell-based. As to conditions: for CC50: Homo sapiens, average of HL-60, HSC-2, HSC-3, HSC-4, read-out: AVE. CC50, human tumour cell lines; for AVE SI: average of the four SI values; for CC50 values in all four bioassays (range in words): HL-60, HSC-2, HSC-3, HSC-4. On the procedure:
as §1

Data set [9] in a line: Cytotoxicity, average over the three human normal cells. In kind it is cell-based. Conditions: human, average of HGF, HPC, HPLF; read-out: AVE CC50, human normal cells. The method, then:
as §1

Data set [10] deals with human normal cells HGF, HPC, HPLF. The data set is described as above. Conditions: average of HGF, read-out: AVE CC50, human normal cells. In kind it is cell-based. The method, then:
as §1

On to `O=C1/C(=C/c2ccc(Cl)c(Cl)c2)CN(C(=O)CC(=O)N2C/C(=C\c3ccc(Cl)c(Cl)c3)C(=O)/C(=C/c3ccc(Cl)c(Cl)c3)C2)C/C1=C\c1ccc(Cl)c(Cl)c1` [Compound 3d], for which the CC50 – broadly, the concentration that lowers cell viability or growth by half – in data set [1] is 65 ± 6.1 µM; in data set [2], 73 ± 3.5 µM; in data set [3] it was 76 ± 13 µM; in data set [4] it was 79 ± 5.5 µM; in [8] it was 73.3 µM; in data set [10], over 100 µM. In addition, the “SI (selectivity index) HL-60” value in data set [1] is recorded as over 1.54. Moreover, the “SI (selectivity index) HSC-2” value in [2] was over 1.37. The “SI (selectivity index) HSC-3” value in data set [3] is given as over 1.32. In addition, the “SI (selectivity index) HSC-4” value in [4] is given as over 1.27. Also, the CC50 at 48 h was over 100 µM in data set [5], over 100 µM in [6], over 100 µM in data set [7] and over 50 µM in data set [9]. Besides, in [8], the “AVE SI” value is recorded as over 1.38.

Consider `COc1ccc(/C=C2\CN(C(=O)C(=O)N3C/C(=C\c4ccc(OC)cc4)C(=O)/C(=C/c4ccc(OC)cc4)C3)C/C(=C\c3ccc(OC)cc3)C2=O)cc1` [Compound 2h], for which the CC50 in data set [1] is 15 ± 0.42 µM; in [2], 7.8 ± 1.3 µM; in data set [3], 9.2 ± 4.7 µM; in data set [4], 9.6 ± 0.17 µM; in data set [8] it was 10.4 µM; in data set [10] it was over 81.7 µM. Moreover, the “SI (selectivity index) HL-60” value in data set [1] is given as over 5.45. The “SI (selectivity index) HSC-2” value in data set [2] is over 10.5. Also, the “SI (selectivity index) HSC-3” value in data set [3] is over 8.88. For the same compound, the “SI (selectivity index) HSC-4” value in [4] is recorded as over 8.51. The CC50 at 48 h in [5] is 82 ± 14 µM; in data set [6] it was 63 ± 8 µM; in data set [7], over 100 µM; in [9] it was over 50 µM. In addition, the “AVE SI” value in [8] is on record as over 8.34.

As to `COc1cc(/C=C/C(=O)CC(=O)/C=C/c2ccc(O)c(OC)c2)ccc1O` [Curcumin, reference compound], the CC50 in [1] came out at 7.8 ± 0.58 µM; in [2] it was 10 ± 0.81 µM; in data set [3], 16 ± 2.7 µM; in data set [4] it was 14 ± 3.2 µM; in data set [8], 12 µM. Further, the “SI (selectivity index) HL-60” value in data set [1] turned out to be 5.81. In addition, in data set [2], the “SI (selectivity index) HSC-2” value turned out to be 4.53. In addition, the “SI (selectivity index) HSC-3” value in [3] is recorded as 2.83. For the same compound, the “SI (selectivity index) HSC-4” value in data set [4] was found to be 3.24. The CC50 at 48 h worked out at 70 ± 12 µM in data set [5], 34 ± 6.8 µM in data set [6], 32 ± 6.4 µM in data set [7] and 45.3 µM in [9]. In addition, the “AVE SI” value in data set [8] came to 4.10.

For `CN(C)c1ccc(/C=C2\CN(C(=O)C(=O)N3C/C(=C\c4ccc(N(C)C)cc4)C(=O)/C(=C/c4ccc(N(C)C)cc4)C3)C/C(=C\c3ccc(N(C)C)cc3)C2=O)cc1` [Compound 2i], the CC50 in [1], in [2], in data set [3], in data set [4], in [8] and in data set [10] was over 100 µM in each case. Also, the “SI (selectivity index) HL-60” value in [1] was about 1.00. Besides, the “SI (selectivity index) HSC-2” value in data set [2] is about 1.00. The “SI (selectivity index) HSC-3” value in data set [3] was about 1.00. Also, the “SI (selectivity index) HSC-4” value in [4] is on record as about 1.00. Moreover, the CC50 at 48 h in data set [5] is over 100 µM; in [6], over 100 µM; in data set [7] it was over 100 µM; in data set [9], over 50 µM. For the same compound, in data set [8], the “AVE SI” value is about 1.00.

Consider `O=C1/C(=C/c2ccc(Cl)cc2)CN(C(=O)C(=O)N2C/C(=C\c3ccc(Cl)cc3)C(=O)/C(=C/c3ccc(Cl)cc3)C2)C/C1=C\c1ccc(Cl)cc1` [Compound 2c], for which the CC50 in data set [1] came to 4.4 ± 0.17 µM; in data set [2], 3.7 ± 0.6 µM; in data set [3], 11 ± 1.1 µM; in [4], 6.7 ± 3 µM; in data set [8] it was 6.45 µM; in data set [10], 74.3 µM. Also, the “SI (selectivity index) HL-60” value in data set [1] amounted to 16.9. Besides, the “SI (selectivity index) HSC-2” value in data set [2] amounted to 20.1. In addition, in data set [3], the “SI (selectivity index) HSC-3” value worked out at 6.76. For the same compound, the “SI (selectivity index) HSC-4” value in data set [4] was determined as 11.1. The CC50 at 48 h was 56 ± 6.7 µM in data set [5], 78 ± 37 µM in data set [6], 89 ± 9.3 µM in data set [7] and over 50 µM in [9]. Also, the “AVE SI” value in data set [8] is recorded as 13.7.

`O=C1/C(=C/c2ccc(F)cc2)CN(C(=O)C(=O)N2C/C(=C\c3ccc(F)cc3)C(=O)/C(=C/c3ccc(F)cc3)C2)C/C1=C\c1ccc(F)cc1` [Compound 2b]: the CC50 in data set [1] turned out to be 0.037 ± 0.017 µM; in data set [2], 0.037 ± 0.009 µM; in [3] it was 0.066 ± 0.008 µM; in data set [4], 0.033 ± 0.009 µM; in data set [8], 0.04 µM. Besides, the “SI (selectivity index) HL-60” value in data set [1] worked out at 40.5. Moreover, the “SI (selectivity index) HSC-2” value in [2] is 40.5. The “SI (selectivity index) HSC-3” value in [3] is given as 22.7. Besides, in data set [4], the “SI (selectivity index) HSC-4” value was determined as 45.5. The 50% cytotoxic concentration (CC50) at 48 h in [5] was 1.2 ± 0.1 µM; in data set [6] it was 1.4 ± 0.11 µM; in data set [7], 1.9 ± 0.36 µM; in data set [9], 1.5 µM. Further, the “CC50 values in all four bioassays (range in words)” value in data set [8] is “double-digit nanomolar range”. Further, in data set [8], the “AVE SI” value is 37.3.

In the case of `O=C1/C(=C/c2ccccc2)CN(C(=O)CC(=O)N2C/C(=C\c3ccccc3)C(=O)/C(=C/c3ccccc3)C2)C/C1=C\c1ccccc1` [Compound 3a], the CC50 was determined as 0.046 ± 0.009 µM in data set [1]; 0.05 ± 0.001 µM in data set [2]; 0.046 ± 0.026 µM in [3]; 0.084 ± 0.005 µM in data set [4]; 0.06 µM in data set [8]. The “SI (selectivity index) HL-60” value in data set [1] turned out to be 20.0. In addition, the “SI (selectivity index) HSC-2” value in [2] amounted to 18.4. Further, the “SI (selectivity index) HSC-3” value in data set [3] was found to be 20.0. In addition, the “SI (selectivity index) HSC-4” value in data set [4] is 11.0. For the same compound, the CC50 at 48 h in data set [5] was 1.1 ± 0.01 µM; in data set [6], 0.36 ± 0.1 µM; in [7] it was 1.3 ± 0.33 µM; in data set [9] it was 0.92 µM. The “CC50 values in all four bioassays (range in words)” value in [8] was “double-digit nanomolar range”. The “AVE SI” value in data set [8] was found to be 17.4.

These data come from PMC10821124, “Dimeric 3,5-Bis(benzylidene)-4-piperidones: Tumor-Selective Cytotoxicity and Structure-Activity Relationships” (Medicines, 2024).
